Reference: patent publication US20240109881A1, “Heteroaryl Compounds as Ligand Directed Degraders of IRAK4” (Bristol-Myers Squibb Company, priority 2022, published 2024)

Columns and labels:
IRAK4 [1] = target: T1, IRAK4 (Homo sapiens, UniProt Q9NWZ3); assay: ALE THP1 HTRF (Advanced Lipoxidation End Product THP1 Homogeneous Time Resolved Fluorescence); format: cell-based; conditions: THP1 cells
T1 construct: endogenous in cells; host or cells: THP-1 cells
T1 sequence (Q9NWZ3 1-460): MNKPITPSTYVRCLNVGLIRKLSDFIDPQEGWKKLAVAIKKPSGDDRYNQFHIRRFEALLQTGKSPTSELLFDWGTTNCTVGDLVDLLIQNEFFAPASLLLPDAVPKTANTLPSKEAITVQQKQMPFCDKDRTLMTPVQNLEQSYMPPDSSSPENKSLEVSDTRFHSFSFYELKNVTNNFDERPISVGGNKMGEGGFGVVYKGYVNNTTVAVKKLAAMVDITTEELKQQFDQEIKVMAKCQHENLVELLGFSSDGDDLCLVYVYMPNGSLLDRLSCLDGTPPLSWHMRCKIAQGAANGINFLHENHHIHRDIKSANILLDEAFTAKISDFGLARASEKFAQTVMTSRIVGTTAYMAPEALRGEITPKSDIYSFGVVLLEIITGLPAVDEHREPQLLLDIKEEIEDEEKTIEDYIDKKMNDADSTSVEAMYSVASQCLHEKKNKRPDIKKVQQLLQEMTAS
Description: For Homogenous Time Resolved Fluorescence (HTRF) assays, a Cisbio HTRF kit was used, which included: Lysis Buffer #1 4×, Blocking Reagent #3 100×, 20× Antibody 1 (Anti-IRAK4 d2), 20× Antibody 2 (Anti-IRAK4 k), and Detection Buffer.
4× Lysis Buffer was stored at 4° C. For use as 1× Lysis buffer, the 4× solution was diluted with de-ionized water (distilled water, Gibco Cat. #15230279) and 100× Blocking Reagent in a 1:3:0.04 volume ratio.
20× Antibody Solution aliquots were stored in −80° C. and the Detection Buffer was stored in 4° C. For use as a 1× Antibody Solution, the 20× Antibody Solution aliquot was diluted with Detection Buffer in a 1:19 volume ratio.
Cells were lysed at room temperature for 45 min with shaking. A BCA protein assay was performed and normalization was conducted to the desired total protein concentration with 1× lysis buffer. Next, 1× Antibody Solutions were prepared by adding 380 μL Detection Buffer to 20 μL 20× Antibody Solution aliquots and mixing well. 1× Antibody Solutions were combined 1:1 and briefly vortexed. For control wells, 20 μL 1× anti IRAK4-k Antibody Solution was saved. The 384-well plate (ProxiPlate-384 Plus, Perkin Elmer Cat. #6008289) was loaded by adding 4 μL of the mixed Antibody Solution to empty wells using a single channel repeater. Using a multi-channel repeater, 16 μL lysate was added per well, and any bubbles that were formed were popped with 20 μL pipette tips and Kimwipe edges. In column 10, triplicates of each control was prepared. In wells A10, B10, and C10, buffer control was prepared by adding 16 μL Lysis Buffer and 4 μL Detection Buffer. In wells D10, E10, and F10, cryptate control was prepared by adding 16 μL Lysis Buffer, 2 μL Detection Buffer, and 2 μL 1× anti IRAK4-k Antibody Solution. In wells G10, H10, and I10, a negative control was prepared by adding 16 μL Lysis Buffer and 4 μL mixed Antibody Solution. The plate was sealed with a clear seal and covered with an aluminum lid. The plate was spun down at 800 g for 5 min and incubated in the dark at room temperature overnight. The next day, the plate was spun down at 800 g for 5 min. The samples were analyzed by a plate reader (Envision, PerkinElmer) using the Desnor 384 HTRF program.

IRAK4 [2] = target: T1, IRAK4; assay: LVL THP1 HTRF (THP1 Homogeneous Time Resolved Fluorescence); format: cell-based; conditions: THP1 cells, 18 h incubation with compound; for DC50: read-out: LVL THP1 HTRF EC50
How it was run: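 THP-1 cells in phenol red-free RPMI with 10% FBS were dosed with compound (20 nL in DMSO) for 18 h at 37° C. After 2 h lysis, IRAK4 was detected with anti-IRAK4-d2/anti-IRAK4-K HTRF antibodies for 18 h at room temperature and read at 665/615 nm; a parallel CTG plate was run.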

SMILES | ALE THP1 HTRF YMIN (IRAK4 [1]) | EC50 (IRAK4 [1]) | LVL THP1 HTRF YMIN (IRAK4 [2]) | DC50 (IRAK4 [2])
N#Cc1cnc2c(cnn2-c2cc(NC3CC3)c(C(=O)N[C@H]3CC[C@H]([C@@H]4C[C@H]4N4CCN(c5ccc(C6CCC(=O)NC6=O)cc5)CC4)CC3)cn2)c1 (relative stereo) [P-111] | 15.6% | 0.024 µM |  | 
CC1(c2ccc(N3CCN(CCC4CCC(NC(=O)c5cnc(-n6ncc7cc(C#N)cnc76)cc5NC5CC5)CC4)CC3)cc2)CCC(=O)NC1=O (single isomer, unassigned) [P-94] | 7.4% | 0.011 µM |  | 
N#Cc1cnc2c(cnn2-c2cc(NC3CC3)c(C(=O)N[C@H]3CC[C@H](C4C[C@@H]4N4CCN(c5ccc(C6CCC(=O)NC6=O)cc5)CC4)CC3)cn2)c1 (single isomer, unassigned) [P-110] | 16.0% | 0.019 µM |  | 
C[C@H](C#N)Nc1cc(Nc2ncc(C#N)cc2Cl)ncc1-n1cc([C@H]2CC[C@H](CCN3CCN(c4ccc(N5CCC(=O)NC5=O)cn4)[C@H](C)C3)CC2)nn1 [P-455] |  |  | −5.9% | 0.0078 µM
C[C@H](C#N)Nc1cc(-n2ncc3cc(C#N)c(N)nc32)ncc1-n1cc([C@H]2CC[C@H](CCN3CCN(c4ccc(N5CCC(=O)NC5=O)cn4)[C@H](C)C3)CC2)nn1 [P-463] |  |  | −3.4% | 0.0001 µM
C[C@H](C#N)Nc1cc(-n2ncc3cc(C#N)cnc32)ncc1-n1cc([C@H]2CC[C@H](CCN3CCC4(c5ccc(N6CCC(=O)NC6=O)cc5)CC4C3)CC2)nn1 (stereo partly shown) [P-471] |  |  | 7.7% | 0.0879 µM
C[C@H](C#N)Nc1cc(Nc2ncc(C#N)cc2Cl)ncc1-n1cc([C@H]2CC[C@H](CCN3CC4(CC(c5ccc(N6CCC(=O)NC6=O)cn5)C4)C3)CC2)nn1 [P-473] |  |  | 15.5% | 1 µM
C[C@H](C#N)Nc1cc(-n2ncc3cc(C#N)cnc32)ncc1C(=O)N[C@H]1CC[C@H](CCN2CC[C@H]3[C@@H]2CCN3c2ccc(N3CCC(=O)NC3=O)c(Cl)c2)CC1 [P-475] |  |  | 6.4% | 0.047 µM
C[C@H](C#N)Nc1cc(-n2ncc3cc(C#N)cnc32)ncc1C(=O)N[C@H]1CC[C@H](CCN2CC[C@H]3[C@@H]2CCN3c2ccc(N3CCC(=O)NC3=O)c(F)c2)CC1 [P-481] |  |  | 9.4% | 0.038 µM
C[C@H](C#N)Nc1cc(-n2ncc3cc(C#N)cnc32)ncc1C(=O)N[C@H]1CC[C@H](CCN2CC[C@H]3[C@@H]2CCN3c2ccc(N3CCC(=O)NC3=O)c(F)c2)CC1 [P-484] |  |  | 52.3% | 1 µM
Cc1cc(N2CC[C@H]3[C@@H]2CCN3CC[C@H]2CC[C@H](NC(=O)c3cnc(-n4ncc5cc(C#N)cnc54)cc3N[C@H](C)C#N)CC2)ccc1N1CCC(=O)NC1=O [P-489] |  |  | 84.3% | 1 µM
Cc1cc(N2CC[C@H]3[C@@H]2CCN3CC[C@H]2CC[C@H](NC(=O)c3cnc(-n4ncc5cc(C#N)cnc54)cc3N[C@H](C)C#N)CC2)ccc1N1CCC(=O)NC1=O [P-490] |  |  | 81.6% | 1 µM
C[C@H](C#N)Nc1cc(-n2ncc3cc(C#N)cnc32)ncc1-c1cn([C@H]2CC[C@H](CCN3CCN(c4ccc(N5CCC(=O)NC5=O)cc4)[C@H](C)C3)CC2)nn1 [P-501] |  |  | −2.28% | 0.0022 µM

Now from value to compound:

ALE THP1 HTRF YMIN (IRAK4 [1]) | EC50 (IRAK4 [1]) | LVL THP1 HTRF YMIN (IRAK4 [2]) | DC50 (IRAK4 [2]) | SMILES
 |  | 0.8% | 0.0006 µM | CC[C@@H]1CN(CC[C@H]2CC[C@H](c3cn(-c4cnc(-n5ncc6cc(C#N)c(N)nc65)cc4N[C@H](C)C#N)nn3)CC2)CCN1c1ccc(N2CCC(=O)NC2=O)cc1 [P-447]
 |  | 3.9% | 0.0321 µM | C[C@H](C#N)Nc1cc(-n2ncc3cc(C#N)cnc32)ncc1-n1cc([C@H]2CC[C@H](CCN3CCC4(C3)CN(c3ccc([C@@]5(C)CCC(=O)NC5=O)cc3)C4)CC2)nn1 [P-448]
 |  | 23.7% | 0.424 µM | C[C@H](C#N)Nc1cc(-n2ncc3cc(C#N)cnc32)ncc1-n1cc([C@H]2CC[C@H](CCN3CC4(CC(c5ccc(N6CCC(=O)NC6=O)cn5)C4)C3)CC2)nn1 [P-449]
 |  | 0.5% | 0.0019 µM | CC[C@@H]1CN(CC[C@H]2CC[C@H](c3cn(-c4cnc(-n5ncc6cc(C#N)cnc65)cc4N[C@H](C)C#N)nn3)CC2)CCN1c1ccc(C2CCC(=O)NC2=O)cc1 (stereo partly shown) [P-452]
 |  | 15.0% | 0.128 µM | C[C@H](C#N)Nc1cc(-n2ncc3cc(C#N)cnc32)ncc1-n1cc([C@H]2CC[C@H](CCN3CC[C@@H](Oc4ccc(N5CCC(=O)NC5=O)cc4)C3)CC2)nn1 [P-458]
 |  | −0.5% | 0.0025 µM | C[C@H](C#N)Nc1cc(-n2ncc3cc(C#N)cnc32)ncc1-n1cc([C@H]2CC[C@H](CCN3CCN(c4ccc(N5CCC(=O)NC5=O)cc4)C[C@H]3C)CC2)nn1 [P-459]
 |  | 18.9% | 0.293 µM | C[C@H](C#N)Nc1cc(-n2ncc3cc(C#N)cnc32)ncc1-n1cc([C@H]2CC[C@H](CCN3CC[C@H](Oc4ccc(N5CCC(=O)NC5=O)cc4)C3)CC2)nn1 [P-465]
 |  | 2.3% | 0.0172 µM | C[C@H](C#N)Nc1cc(-n2ncc3cc(C#N)cnc32)ncc1-n1cc([C@H]2CC[C@H](CCN3CCN(c4ccc(N5CCC(=O)NC5=O)cc4)C[C@@H]3C)CC2)nn1 [P-468]
 |  | 0.9% | 0.002 µM | C[C@H](C#N)Nc1cc(-n2ncc3cc(C#N)cnc32)ncc1-n1cc([C@H]2CC[C@H](CCN3CCC(c4ccc5c(N6CCC(=O)NC6=O)nn(C)c5c4)CC3)CC2)nn1 [P-476]
 |  | 18.6% | 0.263 µM | C[C@H](C#N)Nc1cc(-n2ncc3cc(C#N)cnc32)ncc1-n1cc([C@H]2CC[C@H](CCN3CC(c4ccc(N5CCC(=O)NC5=O)cc4)C3)CC2)nn1 [P-477]
 |  | 3.4% | 0.011 µM | C[C@H](C#N)Nc1cc(-n2ncc3cc(C#N)cnc32)ncc1-n1cc([C@H]2CC[C@H](CCN3C[C@@H](C)N(c4ccc(N5CCC(=O)NC5=O)cc4)C[C@@H]3C)CC2)nn1 [P-483]
 |  | 24.9% | 0.2 µM | C[C@H](C#N)Nc1cc(N2CCc3cc(C#N)cnc32)ncc1-n1cc([C@H]2CC[C@H](CCN3CCN(c4ccc(N5CCC(=O)NC5=O)cc4)CC3)CC2)nn1 [P-486]
 |  | 2.7% | 0.127 µM | C[C@H](C#N)Nc1cc(-n2ncc3cc(C#N)cnc32)ncc1-n1cc([C@H]2CC[C@H](CCN3C[C@@H](C)N(c4ccc(N5CCC(=O)NC5=O)cc4)C[C@H]3C)CC2)nn1 [P-496]
 |  | −2.8% | 0.002 µM | C[C@H](C#N)Nc1cc(-n2ncc3cc(C#N)cnc32)ncc1-n1cc([C@H]2CC[C@H](CCN3CCN(c4ccc5c(N6CCC(=O)NC6=O)nn(C)c5c4)[C@H](C)C3)CC2)nn1 [P-498]
 |  | 13.6% | 0.172 µM | C[C@H](C#N)Nc1cc(-n2ncc3cc(C#N)cnc32)ncc1-n1cc(C2CCC(N3CCN(c4ccc(N5CCC(=O)NC5=O)cc4)CC3)CC2)nn1 (stereo partly drawn) [P-499, 1-(4-(((R)-1-cyanoethyl)amino)-5-(4-(4-(4-(4-(2,4-dioxotetrahydropyrimidin-1(2H)-yl)phenyl)piperazin-1-yl)cyclohexyl)-1H-1,2,3-triazol-1-yl)pyridin-2-yl)-1H-pyrazolo[3,4-b]pyridine-5-carbonitrile]
 |  | −0.79% | 0.0012 µM | C[C@H](C#N)Nc1cc(-n2ncc3cc(C#N)cnc32)ncc1-n1cc([C@H]2CC[C@H](CCN3CCN(c4ccc5c(N6CCC(=O)NC6=O)nn(C)c5c4)[C@@H](C)C3)CC2)nn1 [P-502]
